Consider two molecules from patent US20080194620A1, “Use of Benzodiazepine Receptor Ligands For Combating Signs of Ageing” (L'OREAL, priority 2004, published 2008).

Structures are written as SMILES.

Common to all, as to assay type: cell-based
In data set [1] the test system is Normal human epidermal keratinocytes. Nature of the data set: Differentiation of keratinocytes: determination of transglutaminase K1 (TGK1) activity by radioassay. Here is the method: (§1) Normal human epidermal keratinocytes are cultivated at 37° C. in keratinocyte-SFM medium (Gibco BRL 3701022) supplemented with EGF (epidermal growth factor) and pituitary extract, with or without calcium supplement (1.5 mM). After culture for 24 hours, the medium is replaced with medium containing the actives to be tested or reference substances. Culture is continued for 96 hours. The transglutaminase K1 (TGK1) activity is evaluated by radioassay, by measuring the covalent addition of tritiated putrescine to casein (acceptor protein) for 1 h 30 min at 37° C. The casein is precipitated with TCA (trichloroacetic acid) on a dry filter and then counted in liquid scintillation. The proteins in each sample are determined by means of a kit (BioRad 500-0116). Statistical analysis of the data is performed by analysis of variance (ANOVA) using Dunnett's multiple comparison test.
(§2) The molecule PK11195 (or 1-(2-chlorophenyl)-N-(1-methyl-propyl)-3-isoquinoline carboxamide), a specific inhibitor of the peripheral benzodiazepine receptor, was tested at respective concentrations of 10^−4 M and 10^−6 M. The active was added to the keratinocyte culture medium, containing calcium or not containing calcium. The effect of a medium alone containing 1.5 mM of calcium (pro-differentiation agent) was used as a positive control of differentiation. […]

The test system is the same in data set [2]. Description: Cellular viability of keratinocytes in the TGK1 differentiation cultures. Conditions: 10^−6 M; medium with calcium (1.5 mM); 96 h culture; control = 100%. Here is the method:
as §1, §2

The test system is the same in data set [3]. Nature of the data set: Synthesis of total epidermal glycosaminoglycans (incorporation of 3H-glucosamine). Particulars: 1.5 mM, 72 h incubation. Here is the method: Normal human epidermal keratinocytes are cultivated in SFM complete medium for 24 hours. The medium is then removed, and replaced with SFM medium without supplements containing the product PK11195 or the pharmacological reference. It is incubated for 72 h at 37° C. Tritiated glucosamine (D-[6-^3H]-glucosamine, Amersham TRK398 (1.3 Tbq/mmol, 35 Ci/mmol) is added for the last 24 hours of incubation. The glycosaminoglycans are extracted from the culture medium and from the deposited matrix, with a chaotropic buffer, then purified by ion-exchange chromatography. The radioactivity incorporated in the […] molecules (mostly GAGs) is counted by liquid scintillation. The results are expressed as percentage change in synthesis of the GAGs relative to the control.

On to `CC1=C(/C=C/C(C)=C/C=C/C(C)=C/CO)C(C)(C)CCC1` [retinol], for which the TGK1 activity in data set [1] (10^−6 M, medium with calcium (1.5 mM), 96 h culture, control = 100%, *p<0.05) stood at 56%. For the same molecule, the “decrease in TGK1 activity” value in data set [1] (medium with retinol 10^−6 M (anti-differentiation reference)) was −44%. The Cellular viability in data set [2] was found to be 103%.
Regarding `[Ca+2].[Cl-].[Cl-]` [CaCl2], the “Incorporation of 3H-glucosamine, CPM” value in data set [3] (control 10624 CPM) worked out at 16791 CPM. The “Incorporation of 3H-glucosamine, Percentage/control” value in data set [3] (p<0.01) worked out at 158%.
